# Target: T1, Drak2 (Homo sapiens, UniProt O94768)
# T1 sequence (O94768 1-372): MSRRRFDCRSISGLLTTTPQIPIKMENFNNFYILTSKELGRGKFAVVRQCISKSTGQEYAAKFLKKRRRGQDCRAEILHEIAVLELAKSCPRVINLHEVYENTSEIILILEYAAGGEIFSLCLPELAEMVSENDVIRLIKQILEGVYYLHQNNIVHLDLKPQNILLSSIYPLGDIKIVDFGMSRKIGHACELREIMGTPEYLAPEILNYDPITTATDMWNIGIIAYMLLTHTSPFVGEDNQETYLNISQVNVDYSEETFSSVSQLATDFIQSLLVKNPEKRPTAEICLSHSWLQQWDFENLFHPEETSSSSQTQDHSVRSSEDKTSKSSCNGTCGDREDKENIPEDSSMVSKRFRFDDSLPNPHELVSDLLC
# Assay: Drak2 activity test, ADP-Glo kinase assay (Promega)
# Type: biochemical
# Settings: inhibition of Drak2 kinase activity, 2 h room temperature, activity range classes, read-out: IC50_Drak2
row,SMILES,IC50 [nM]
1,"COc1cc(-c2cncc(-c3cc(NC(=O)CC4CCC4)cs3)n2)ccc1OCCN1CCOCC1 [Example 169, 2-cyclobutyl-N-(5-(6-(3-methoxy-4-(2-morpholinylethoxy)phenyl)pyrazin-2-yl)thiophen-3-yl) acetamide]",11 to 100
2,"COc1cc(-c2cncc(-c3cc(NC(=O)CC4CCC4)cs3)n2)ccc1OCCN1CCCC1=O [Example 170, 2-Cyclobutyl-N-{5-[6-(3-methoxy-4-{[2-(2-oxotetrahydro-1H-pyrrol-1-yl)ethyl]oxy}phenyl)pyrazin-2-yl]thiophen-3-yl} acetamide]",11 to 100
3,COc1cc(-c2cncc(-c3cc(NC(=O)CC4CCC4)cs3)n2)ccc1OC(O)CN1CCOCC1=O (stereo not drawn) [Example 171],11 to 100
4,"COc1cc(-c2cncc(-c3cc(NC(=O)CC4CCC4)cs3)n2)ccc1OCCc1ccccn1 [Example 172, 2-cyclobutyl-N-{5-[6-(3-methoxy-4-{[2-(pyridin-2-yl)ethyl]oxy}phenyl)pyrazin-2-yl]thiophen-3-yl} acetamide]",101 to 1000
5,"COc1cc(-c2cncc(-c3cc(NC(=O)CC4CCC4)cs3)n2)ccc1OCCN1CCN(C)CC1 [Example 173, 2-cyclobutyl-N-{5-[6-(3-methoxy-4-{[2-(4-methylpiperazin-1-yl)ethyl]oxy}phenyl)pyrazin-2-yl]thiophen-3-yl}acetamide]",11 to 100
6,"COc1cc(-c2cncc(-c3cc(NC(=O)CC4CCC4)cs3)n2)ccc1OCCc1cnccn1 [Example 174, 2-cyclobutyl-N-{5-[6-(3-methoxy-4-{[2-(pyrazin-2-yl)ethyl]oxy}phenyl)pyrazin-2-yl]thiophen-3-yl} acetamide]",11 to 100
7,"COc1cc(-c2cncc(-c3cc(NC(=O)CC4CCC4)cs3)n2)ccc1OCCN1CCn2ncnc2C1 [Example 175, 2-cyclobutyl-N-{5-[6-(3-methoxy-4-{[2-(5,6,7,8-tetrahydro [1,2,4]triazolo [1,5-a]pyrazin-7-yl)ethyl]oxy}phenyl)pyrazin-2-yl]thiophen-3-yl} acetamide]",11 to 100
8,"COc1cc(-c2cncc(-c3cc(NC(=O)CC4CCC4)cs3)n2)ccc1OCC(=O)N1CCN(C)CC1 [Example 176, 2-cyclobutyl-N-{5-[6-(3-methoxy-4-{[2-(4-methylpiperazin-1-yl)-2-oxoethyl]oxy}phenyl)pyrazin-2-yl]thiophen-3-yl} acetamide]",< 10
9,"COc1cc(-c2cncc(-c3cc(NC(=O)CC4CCC4)cs3)n2)ccc1OCCN1CCN(C2CCN(C)CC2)CC1 [Example 177, 2-cyclobutyl-N-(5-{6-[3-methoxy-4-({2-[4-(1-methylhexahydropyridin-4-yl)piperazin-1-yl]ethyl}oxy)phenyl]pyrazin-2-yl}thiophen-3-yl) acetamide]",11 to 100
10,"COc1cc(-c2cncc(-c3cc(NC(=O)CC4CCC4)cs3)n2)ccc1OCCN1CC2(CN(C)C2)C1 [Example 178, 2-cyclobutyl-N-{5-[6-(3-methoxy-4-{[2-(6-methyl-2,6-diazaspiro [3.3]hept-2-yl)ethyl]oxy}phenyl)pyrazin-2-yl]thiophen-3-yl} acetamide]",11 to 100
11,"CCCCC(=O)Nc1csc(-c2cncc(-c3ccc(OCCN4CCOCC4)c(OC)c3)n2)c1 [Example 179, N-{5-[6-(3-methoxy-4-{[2-(morpholin-4-yl)ethyl]oxy}phenyl)pyrazin-2-yl]thiophen-3-yl} pentanamide]",11 to 100
12,"CCCCC(=O)Nc1csc(-c2cncc(-c3ccc(OCCN4CCS(=O)(=O)CC4)c(OC)c3)n2)c1 [Example 180, N-{5-[6-(4-{[2-(1,1-dioxo-1 λ^6-1,4-thiomorpholin-4-yl)ethyl]oxy}-3-methoxyphenyl)pyrazin-2-yl]thiophen-3-yl} pentanamide]",11 to 100
13,"CCCCC(=O)Nc1csc(-c2cncc(-c3ccc(O)c(OC)c3)n2)c1 [Example 181, N-{5-[6-(4-hydroxy-3-methoxyphenyl)pyrazin-2-yl]thiophen-3-yl}pentanamide]",11 to 100
14,"CCCCNC(=O)c1csc(-c2cncc(-c3ccc(OC)c(OC)c3)n2)c1 [Example 182, N-butyl-5-[6-(3,4-dimethoxyphenyl)pyrazin-2-yl] thiophen-3-formamide]",101 to 1000
15,COc1cc(-c2cncc(-c3cc(NC(=O)CC4CCC4)cs3)n2)ccc1O [Example 183],11 to 100
16,"COc1cc(-c2cncc(-c3cc(NC(=O)CC4CCC4)cs3)n2)ccc1OCC1CCN(C)CC1 [Example 184, 2-Cyclobutyl-N-(5-(6-(3-methoxy-4-((1-methylpiperidin-4-yl)methoxy)phenyl)pyrazin-2-yl)thiophen-3-yl) acetamide]",11 to 100
17,"COc1cc(-c2cncc(-c3cc(NC(=O)CC4CC(F)(F)C4)cs3)n2)ccc1OCCN1CCOCC1 [Example 185, 2-(3,3-difluorocyclobutyl)-N-(5-(6-(3-methoxy-4-(2-morpholinylethoxy)phenyl)pyrazin-2-yl)thiophen-3-yl) acetamide]",11 to 100
18,COc1cc(-c2cncc(-c3cc(NC(=O)CC4CCC4)cs3)n2)ccc1O [Example 186],< 10
19,"COc1cc(-c2cncc(-c3cc(NC(=O)CC4CCC4)cs3)n2)ccc1OCCc1cnn(C)c1 [Example 187, 2-Cyclobutyl-N-(5-(6-(3-methoxy-4-(2-(1-methyl-1H-pyrazol-4-yl)ethoxy)phenyl)pyrazin-2-yl)thiophen-3-yl) acetamide]",11 to 100
20,"CCCCCCc1csc(-c2cncc(-c3ccc(OC)c(OC)c3)n2)c1 [Example 188, 2-(3,4-Dimethoxyphenyl)-6-(4-hexylthiophen-2-yl) pyrazine]",1000 to 10000
21,"COc1cc(-c2cncc(-c3cc(NC(=O)CC4CCC4)cs3)n2)ccc1OCCN1CCCC1 [Example 189, 2-Cyclobutyl-N-(5-(6-(3-methoxy-4-(2-(pyrrolidin-1-yl)ethoxy)phenyl)pyrazin-2-yl)thiophen-3-yl) acetamide]",< 10
22,COc1cc(-c2cncc(-c3cc(NC(=O)CC4CCC4)cs3)n2)ccc1OCCN1CCSCC1 [Example 190],11 to 100
23,"COc1cc(-c2cncc(-c3cc(NC(=O)CC4CCC4)cs3)n2)ccc1OCC(=O)N1CCOCC1 [Example 191, 2-Cyclobutyl-N-{5-[6-(3-methoxy-4-{[2-(morpholin-4-yl)-2-oxoethyl]oxy}phenyl)pyrazin-2-yl]thiophen-3-yl} acetamide]",< 10
24,"COc1cc(-c2cncc(-c3cc(NC(=O)CC4CCC4)cs3)n2)ccc1OCC(=O)N1CCN(C2CCN(C)CC2)CC1 [Example 192, 2-Cyclobutyl-N-(5-{6-[3-methoxy-4-({2-[4-(1-methylhexahydropyridin-4-yl)piperazin-1-yl]-2-oxoethyl}oxy)phenyl]pyrazin-2-yl}thiophen-3-yl) acetamide]",11 to 100
25,CCCCC(=O)Nc1csc(-c2cncc(-c3ccc(OCCN4CCSCC4)c(OC)c3)n2)c1 [Example 193],11 to 100
26,"CCCCC(=O)Nc1csc(-c2cncc(-c3ccc(OCCN4CC[S+]([O-])CC4)c(OC)c3)n2)c1 [Example 194, N-{5-[6-(3-methoxy-4-{[2-(1-oxo-1λ4-thiomorpholin-4-yl)ethyl]oxy}phenyl)pyrazin-2-yl]thiophen-3-yl} pentanamide]",11 to 100
27,"CCCCC(=O)Nc1csc(-c2cncc(-c3cccc(OC)c3)n2)c1 [Example 195, N-{5-[6-(3-methoxyphenyl)pyrazin-2-yl]thiophen-3-yl} pentanamide]",11 to 100

# — patent US20240308992A1 (Biopolar Youtang(Guangdong) Pharmaceutical Co., Ltd., priority 2021, published 2024)
